Experiments:
Experiment in all cases: relative viability (nuclei count vs DMSO), 5 days (fraction); higher = more cells survive
AZ505 + Dasatinib = compound: C1CCC(CC1)N(CCNCCC2=C3C(=C(C=C2)O)NC(=O)CO3)C(=O)CCNCCC4=CC(=C(C=C4)Cl)Cl [AZ505] + Cc1nc(Nc2ncc(C(=O)Nc3c(C)cccc3Cl)s2)cc(N2CCN(CCO)CC2)n1 [Dasatinib] (partner 0.075 µM)
Outline: (§1)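 Relative viability is defined as nuclei in treated wells over nuclei in vehicle wells. Duplicate plates were run and medians reported. Lung cancer cell lines in 1536-well plates were dosed by pin tool one day after seeding, with one drug or with a fixed anchor-drug dose plus five library-drug doses (not always all listed) in √10 steps, and nuclei were counted after 5 days.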

Dactolisib + Trametinib = compound: Cn1c(=O)n(-c2ccc(C(C)(C)C#N)cc2)c2c3cc(-c4cnc5ccccc5c4)ccc3ncc21 [Dactolisib] + CC(=O)Nc1cccc(-n2c(=O)n(C3CC3)c(=O)c3c(Nc4ccc(I)cc4F)n(C)c(=O)c(C)c32)c1 [Trametinib] (partner 0.02 µM)
Outline: as §1

Dactolisib + Foretinib = compound: Cn1c(=O)n(-c2ccc(C(C)(C)C#N)cc2)c2c3cc(-c4cnc5ccccc5c4)ccc3ncc21 [Dactolisib] + COc1cc2c(Oc3ccc(NC(=O)C4(C(=O)Nc5ccc(F)cc5)CC4)cc3F)ccnc2cc1OCCCN1CCOCC1 [Foretinib] (partner 0.25 µM)
Outline: as §1

Dactolisib + Pictilisib = compound: Cn1c(=O)n(-c2ccc(C(C)(C)C#N)cc2)c2c3cc(-c4cnc5ccccc5c4)ccc3ncc21 [Dactolisib] + CS(=O)(=O)N1CCN(Cc2cc3nc(-c4cccc5[nH]ncc45)nc(N4CCOCC4)c3s2)CC1 [Pictilisib] (partner 1 µM)
Outline: as §1

Cell Line	relative viability (AZ505 + Dasatinib; first compound 0.08 µM)	relative viability (AZ505 + Dasatinib; first compound 0.253 µM)	relative viability (AZ505 + Dasatinib; first compound 0.8 µM)	relative viability (AZ505 + Dasatinib; first compound 2.53 µM)	relative viability (AZ505 + Dasatinib; first compound 8 µM)	relative viability (Dactolisib + Trametinib; first compound 0.002 µM)	relative viability (Dactolisib + Trametinib; first compound 0.006325 µM)	relative viability (Dactolisib + Trametinib; first compound 0.02 µM)	relative viability (Dactolisib + Trametinib; first compound 0.06325 µM)	relative viability (Dactolisib + Trametinib; first compound 0.2 µM)	relative viability (Dactolisib + Foretinib; first compound 0.002 µM)	relative viability (Dactolisib + Foretinib; first compound 0.006325 µM)	relative viability (Dactolisib + Foretinib; first compound 0.02 µM)	relative viability (Dactolisib + Foretinib; first compound 0.06325 µM)	relative viability (Dactolisib + Foretinib; first compound 0.2 µM)	relative viability (Dactolisib + Pictilisib; first compound 0.002 µM)	relative viability (Dactolisib + Pictilisib; first compound 0.006325 µM)	relative viability (Dactolisib + Pictilisib; first compound 0.02 µM)	relative viability (Dactolisib + Pictilisib; first compound 0.06325 µM)	relative viability (Dactolisib + Pictilisib; first compound 0.2 µM)
NCI-H460	0.529	0.416	0.557	0.314	0.59	0.2	0.0901	0.13	0.0463	0.0358	1.03	1	1.03	0.493	0.407	0.423	0.355	0.289	0.302	0.306
NCI-H650	0.425	0.408	0.447	0.547	0.452	1.04	0.906	0.942	0.527	0.424	0.981	1.02	1.05	0.712	0.426	0.86	0.771	0.704	0.558	0.451
NCI-H661	0.862	0.932	0.731	0.958	0.964	0.552	0.483	0.486	0.336	0.337	1.04	1.01	0.977	0.439	0.459	0.468	0.406	0.389	0.377	0.251
NCI-H1793	0.345	0.439	0.394	–	0.439	0.418	0.359	0.244	0.231	0.196	0.655	0.416	0.241	0.2	0.166	0.311	0.315	0.175	0.211	0.203
NCI-H1734	0.456	0.467	0.482	0.478	0.417	0.69	0.557	0.624	0.374	0.25	0.837	0.773	0.805	0.467	0.284	0.468	0.395	0.39	0.26	0.216
LXF-289	0.231	0.189	0.169	0.249	0.181	0.709	0.629	0.633	0.559	0.379	1.02	0.952	0.99	0.987	0.827	0.9	0.851	0.749	0.673	0.613
H3255	0.368	0.316	0.369	0.388	0.483	0.657	0.58	0.507	0.539	0.455	0.989	0.851	0.793	0.724	0.772	0.513	0.44	0.473	0.35	0.339

Source: the supplement of paper PMC10307832
